Assay results as given in patent EP0037516A1, “N-omega substituted derivatives of 1-Desamino-vasopressin analogs” (VEGA LABORATORIES, INC., priority 1980, dated 1981).
Marks after values point to notes of the source that are not given here. *1 amine or outer side, *2 acyl side, *3 side chain or, on linkers, in order; H or OH if unused. Where a SMILES comes first, the peptide text is derived from it. Bridges are numbered along the chain shown (N, C = ends). Side-chain parts run from the residue outwards. [ ]: non-standard residue; d: D form. Thz = O=C(O)[C@@H]1CSCN1; X1 = O=C(CCC[*:2])[*:1]; Mpa = O=C(O)CCS

Key:
[1] = Pressor assay in rats, calibrated against arginine-vasopressin; assay type: in vivo, male Sprague-Dawley rats; conditions: for Peak Potency (pressor activity): 200g male Sprague-Dawley rats, calibrated against arginine-vasopressin; for Mean Peak Potency (Product) F: pressor activity, peak potency multiplied by F; for Ratio of Half-Life of Compound to Parent Half-Life (F): pressor response; for pressor activity (in words): comment on Table 3
[2] = Antidiuretic assay in rats, calibrated against arginine-vasopressin; assay type: in vivo, male Sprague-Dawley rats; conditions: for Peak Potency (antidiuretic activity): 200g male Sprague-Dawley rats, calibrated against arginine-vasopressin; for Mean Peak Potency (Product) F: antidiuretic activity, peak potency multiplied by F; for Ratio of Half-Life of Compound to Parent Half-Life (F): antidiuretic response; for antidiuretic activity (in words): comment on Table 4
[3] = system: Factor VIII; experiment: Factor VIII release, clotting assay in male canine citrated plasma; assay type: in vivo; conditions: for Factor VIII Releasing Activity: male canine citrated plasma, calibrated against desmopressin; for Factor VIII releasing activity (in words): comment on Table 5
Method: Pressor and antidiuretic assays of the compounds of Examples I-IV were carried out in 200g body weight, male Sprague-Dawley rats using the techniques reported by Schaechtelin et al in "Enhancement of the Activity of Angiotensin II by Certain Cations," Molec. Pharmacol., 10, 57-67 (1974) and Cort et al in "Role of the Disulfide Bridge and the C-Terminal Tripeptide in the Anti-diuretic Action of Vasopressin in Man and the Rat", Kidney Internat. , 8, 292-302 (1975), with calibration of responses against a 3-point curve using highly purified arginine-vasopressin of known activity. Similar tests were performed on known vasopressin analogs for purposes of comparison. In addition, the release of Factor VIII by the compounds of Examples I-IV was tested in male canine citrated plasna using the clotting assay described by Prowse et al, in Brit. J. Haematol., 41, 437 (1979), and the results were calibrated against the Factor VIII releasing activity of desmopressin. In all cases, the half-lives of the responses were compared to the standard at equi-peak-potent levels.

[4] = system: Factor VIII; experiment: Factor VIII releasing activity in pentothal-anesthetized dogs, standard clotting assay; assay type: in vivo; conditions: for Factor VIII Releasing Activity: dogs
Method: The 9-Ala-NH2 analogs of Examples XII and XIII were evaluated for ability to stimulate production of Factor VIII by administration to pentothal-anesthestized dogs. These analogs, as well as desmopressin used as a control, were administered i.v. into the external jugular vein at a dose of 10 meg/kg body weight. Factor VIII analysis was performed by standard clotting assay (using normal dog plasma as 100% clotting and severely hemophilic dog plasma as 0% for the standard curve) just prior to injection, and at periodic intervals for up to 4 hours after injection.

[5] = as compared to [2-Phe,8-Lys]-vasopressin
[6] = as compared to [8-Lys]-vasopressin (footnote *)
[7] = as compared to 1-desamino-[8-Lys]-vasopressin (footnote ***)
[8] = Pre-Injection, normal dog plasma = 100% clotting
[9] = no comparator footnote (parent itself)

NCCCC[C@H](NC(=O)[C@@H]1CCCN1C(=O)[C@@H]1CSSCCC(=O)N[C@@H](Cc2ccccc2)C(=O)N[C@@H](Cc2ccccc2)C(=O)N[C@@H](CCC(N)=O)C(=O)N[C@@H](CC(N)=O)C(=O)N1)C(=O)NCC(N)=O [1-desamino-[2-Phe, 8-Lys]-vasopressin, 1-desamino-[2-Phe, 8-Lys]vasopressin, reference compound] ([Mpa]FFQNCPKG-NH2; disulfide 1-6)
Peak Potency (pressor activity) [1]: 45 IU/mg | Mean Peak Potency (Product) F [1]: 67.5 | Ratio of Half-Life of Compound to Parent Half-Life (F) [1, 5]: 1.5** | Peak Potency (antidiuretic activity) [2]: 30 IU/mg | Mean Peak Potency (Product) F [2]: 45 | Ratio of Half-Life of Compound to Parent Half-Life (F) ([2]; comparator not given): 1.5

NCCCC[C@H](NC(=O)[C@@H]1CCCN1C(=O)[C@@H]1CSSCCC(=O)N[C@@H](Cc2ccc(O)cc2)C(=O)N[C@@H](Cc2ccccc2)C(=O)N[C@@H](CCC(N)=O)C(=O)N[C@@H](CC(N)=O)C(=O)N1)C(=O)NCC(N)=O [1-desamino-[8-Lys]-vasopressin, reference compound]
Peak Potency (pressor activity) [1]: 126 IU/mg | Mean Peak Potency (Product) F [1]: 189 | Ratio of Half-Life of Compound to Parent Half-Life (F) [1, 6]: 1.5* | Peak Potency (antidiuretic activity) [2]: 300 IU/mg | Mean Peak Potency (Product) F [2]: 450 | Ratio of Half-Life of Compound to Parent Half-Life (F) ([2]; comparator not given): 1.5

NCC(=O)NCCCC[C@H](NC(=O)[C@@H]1CCCN1C(=O)[C@@H]1CSSCCC(=O)N[C@@H](Cc2ccccc2)C(=O)N[C@@H](Cc2ccccc2)C(=O)N[C@@H](CCC(N)=O)C(=O)N[C@@H](CC(N)=O)C(=O)N1)C(=O)NCC(N)=O [Example I, l-Desamino-[2-Phe, 8-N^ε-Lys(Gly)]-Vasopressin] ([Mpa]FFQNCPK(Gly)G-NH2; disulfide 1-6)
Peak Potency (pressor activity) [1]: 6.9 IU/mg | pressor activity (in words) [1]: prolonged pressor activity of higher potency than that of tGLVP | Mean Peak Potency (Product) F [1]: 60 | Ratio of Half-Life of Compound to Parent Half-Life (F) [1, 5]: 8.7** | Factor VIII Releasing Activity [3]: 101% | Peak Potency (antidiuretic activity) [2]: 6 IU/mg | Mean Peak Potency (Product) F [2]: 24 | Ratio of Half-Life of Compound to Parent Half-Life (F) ([2]; comparator not given): 4.0 | antidiuretic activity (in words) [2]: low antidiuretic activity

NCC(=O)NCC(=O)NCC(=O)NCCCC[C@H](NC(=O)[C@@H]1CCCN1C(=O)[C@@H]1CSSCCC(=O)N[C@@H](Cc2ccc(O)cc2)C(=O)N[C@@H](Cc2ccccc2)C(=O)N[C@@H](CCC(N)=O)C(=O)N[C@@H](CC(N)=O)C(=O)N1)C(=O)NCC(N)=O [Example II, 1-Desamino-[8-N^ε-Lys(Gly-Gly-Gly)]-Vasopressin]
Peak Potency (pressor activity) [1]: 15 IU/mg | pressor activity (in words) [1]: prolonged pressor activity of higher potency than that of tGLVP | Mean Peak Potency (Product) F [1]: 157.5 | Ratio of Half-Life of Compound to Parent Half-Life (F) [1, 7]: 10.5*** | Factor VIII Releasing Activity [3]: 104% | Peak Potency (antidiuretic activity) [2]: 8 IU/mg | Mean Peak Potency (Product) F [2]: 44 | Ratio of Half-Life of Compound to Parent Half-Life (F) ([2]; comparator not given): 5.5 | antidiuretic activity (in words) [2]: low antidiuretic activity

CC[C@H](C)[C@@H]1NC(=O)[C@H](Cc2ccc(O)cc2)NC(=O)CCSSC[C@@H](C(=O)N2CCC[C@H]2C(=O)N[C@H](CCCCNC(=O)CN)C(=O)NCC(N)=O)NC(=O)[C@H](CC(N)=O)NC(=O)[C@H](CCC(N)=O)NC1=O [Example III, 1-Desamino-[8-D-N^ε-Lys(Gly)]-Vasotocin] ([Mpa]YIQNCP[dK](Gly)G-NH2; disulfide 1-6)
Peak Potency (pressor activity) [1]: 0.1 IU/mg | pressor activity (in words) [1]: substantially devoid of pressor activity | Factor VIII releasing activity (in words) [3]: significant activity in releasing Factor VIII | Factor VIII Releasing Activity [3]: 165% | Peak Potency (antidiuretic activity) [2]: 290 IU/mg | Mean Peak Potency (Product) F [2]: 1508 | Ratio of Half-Life of Compound to Parent Half-Life (F) ([2]; as compared to 1-desamino-[8-Lys]-vasopressin (footnote *)): 5.2* | antidiuretic activity (in words) [2]: considerable antidiuretic activity

CC(C)C[C@H](N)C(=O)NCCCC[C@H](NC(=O)[C@@H]1CSCN1C(=O)[C@@H]1CSCCCC(=O)N[C@@H](Cc2ccc(O)cc2)C(=O)N[C@@H](Cc2ccccc2)C(=O)N[C@@H](CCC(N)=O)C(=O)N[C@@H](CC(N)=O)C(=O)N1)C(=O)NCC(N)=O [Example IV, 1-Desamino-1-monocarba-[7-thioPro, 8-NE-Lys(Leu)]-Vasopressin] (YFQNC[Thz]K(Leu)G-NH2; linker N-5 via X1)
Peak Potency (pressor activity) [1]: 350 IU/mg | pressor activity (in words) [1]: prolonged pressor activity of higher potency than that of tGLVP | Mean Peak Potency (Product) F [1]: 3675 | Ratio of Half-Life of Compound to Parent Half-Life (F) [1, 7]: 10.5*** | Factor VIII releasing activity (in words) [3]: significant activity in releasing Factor VIII | Factor VIII Releasing Activity [3]: 285% | Peak Potency (antidiuretic activity) [2]: 450 IU/mg | Mean Peak Potency (Product) F [2]: 3015 | Ratio of Half-Life of Compound to Parent Half-Life (F) ([2]; comparator not given): 6.7 | antidiuretic activity (in words) [2]: considerable antidiuretic activity

C[C@@H](NC(=O)[C@H](CCCCNC(=O)CNC(=O)CNC(=O)CN)NC(=O)[C@@H]1CCCN1C(=O)[C@@H]1CSSCCC(=O)N[C@@H](Cc2ccc(O)cc2)C(=O)N[C@@H](Cc2ccccc2)C(=O)N[C@@H](CCC(N)=O)C(=O)N[C@@H](CC(N)=O)C(=O)N1)C(N)=O [Example XII, 1-Desamino-[8-N^9-Lys(Gly-Gly-Gly), 9-D-Ala]-vasopressin] ([Mpa]YFQNCPK([Gly-Gly-Gly])[dA]-NH2; disulfide 1-6)
Factor VIII Releasing Activity ([4]; 15 min. after i.v. 10 meg/kg): 110% | Factor VIII Releasing Activity ([4]; 60 min. after i.v. 10 meg/kg): 165% | Factor VIII Releasing Activity ([4]; 120 min. after i.v. 10 meg/kg): 185% | Factor VIII Releasing Activity ([4]; 240 min. after i.v. 10 meg/kg): 220% | Factor VIII Releasing Activity [4, 8]: 100%

C[C@H](NC(=O)[C@@H](CCCCNC(=O)CNC(=O)CNC(=O)CN)NC(=O)[C@@H]1CCCN1C(=O)[C@@H]1CSSCCC(=O)N[C@@H](Cc2ccc(O)cc2)C(=O)N[C@@H](Cc2ccccc2)C(=O)N[C@@H](CCC(N)=O)C(=O)N[C@@H](CC(N)=O)C(=O)N1)C(N)=O [Example XIII, 1-Desamino-[Q-D-NE-Lys(Gly-Gly-Gly), 9-Ala-NH2]-vasopressin] ([Mpa]YFQNCP[dK]([Gly-Gly-Gly])A-NH2; disulfide 1-6)
Factor VIII Releasing Activity ([4]; 15 min. after i.v. 10 meg/kg): 115% | Factor VIII Releasing Activity ([4]; 60 min. after i.v. 10 meg/kg): 153% | Factor VIII Releasing Activity ([4]; 120 min. after i.v. 10 meg/kg): 175% | Factor VIII Releasing Activity ([4]; 240 min. after i.v. 10 meg/kg): 210% | Factor VIII Releasing Activity [4, 8]: 105%

NCCCC[C@H](NC(=O)[C@@H]1CCCN1C(=O)[C@@H]1CSSC[C@H](N)C(=O)N[C@@H](Cc2ccccc2)C(=O)N[C@@H](Cc2ccccc2)C(=O)N[C@@H](CCC(N)=O)C(=O)N[C@@H](CC(N)=O)C(=O)N1)C(=O)NCC(N)=O [[2-Phe, 8-Lys]-vasopressin, reference compound] (H-CFFQNCPKG-NH2; disulfide 1-6)
Peak Potency (pressor activity) [1]: 80 IU/mg | Mean Peak Potency (Product) F [1]: 80 | Ratio of Half-Life of Compound to Parent Half-Life (F) [1, 9]: 1.0 | Peak Potency (antidiuretic activity) [2]: 25 IU/mg | Mean Peak Potency (Product) F [2]: 25 | Ratio of Half-Life of Compound to Parent Half-Life (F) ([2]; comparator not given): 1.0

NCCCC[C@H](NC(=O)[C@@H]1CCCN1C(=O)[C@@H]1CSSC[C@H](N)C(=O)N[C@@H](Cc2ccc(O)cc2)C(=O)N[C@@H](Cc2ccccc2)C(=O)N[C@@H](CCC(N)=O)C(=O)N[C@@H](CC(N)=O)C(=O)N1)C(=O)NCC(N)=O [[8-Lys]-vasopressin, reference compound]
Peak Potency (pressor activity) [1]: 220 IU/mg | Mean Peak Potency (Product) F [1]: 220 | Ratio of Half-Life of Compound to Parent Half-Life (F) [1, 9]: 1.0 | Peak Potency (antidiuretic activity) [2]: 200 IU/mg | Mean Peak Potency (Product) F [2]: 220 | Ratio of Half-Life of Compound to Parent Half-Life (F) ([2]; comparator not given): 1.0

NCCCC[C@H](NC(=O)[C@@H]1CCCN1C(=O)[C@@H]1CSSC[C@H](NC(=O)CNC(=O)CNC(=O)CN)C(=O)N[C@@H](Cc2ccc(O)cc2)C(=O)N[C@@H](Cc2ccccc2)C(=O)N[C@@H](CCC(N)=O)C(=O)N[C@@H](CC(N)=O)C(=O)N1)C(=O)NCC(N)=O [tGLVP, N^c<-glycyl-glycyl-glycyl-8-lysine-vasopressin, reference compound] (H-GGGCYFQNCPKG-NH2; disulfide 4-9)
Peak Potency (pressor activity) [1]: 2.1 IU/mg | Mean Peak Potency (Product) F [1]: 8.4 | Ratio of Half-Life of Compound to Parent Half-Life (F) [1, 6]: 4.0* | Peak Potency (antidiuretic activity) [2]: 1.1 IU/mg | Mean Peak Potency (Product) F [2]: 9.2 | Ratio of Half-Life of Compound to Parent Half-Life (F) ([2]; comparator not given): 4.0

Desmopressin [reference compound]
Factor VIII Releasing Activity [3]: 250% | Factor VIII Releasing Activity ([4]; 15 min. after i.v. 10 meg/kg): 125% | Factor VIII Releasing Activity ([4]; 60 min. after i.v. 10 meg/kg): 185% | Factor VIII Releasing Activity ([4]; 120 min. after i.v. 10 meg/kg): 125% | Factor VIII Releasing Activity ([4]; 240 min. after i.v. 10 meg/kg): 105% | Factor VIII Releasing Activity [4, 8]: 98% | Factor VIII releasing activity (in words) ([4]; comment on Table 6, 4 hours after injection): substantially decreased to zero at 4 hours
